Data from patent publication US8715920B2, “Composition for preserving platelets during photosensitization” (Biovec Transfusion, LLC, priority 2010, dated 2014).
Entries after “also recorded” stand apart in the source; their conditions may differ. Positions of bridges follow the written chain, without caps; N, C: chain ends. Non-standard residues stand in square brackets, D forms with d. Residues, ends and D or L forms follow the SMILES beside them. hArg = N=C(N)NCCCC[C@H](N)C(=O)O; Mpa = O=C(O)CCS

Assays:
[1] = Photodegradation upon exposure to ultraviolet light by HPLC analysis; settings: for relative stabilities: assuming the dosage codes were equivalent
[2] = more sensitive to the αPTT; cited from earlier work

SMILES | relative stabilities ([1]; UV282) | photodegradation profile, in words ([1]; UV 282 nm) | HPLC peak relative to unexposed control ([1]; UV 282 nm, exposure A) | HPLC peak relative to unexposed control ([1]; UV 282 nm, remainder of the exposures (after exposure A)) | relative stabilities ([1]; UV308) | photodegradation, in words ([1]; UV 308 nm) | effect on PT and αPTT [2] | HPLC peak relative to unexposed control ([1]; UV 282 nm, exposure B) | HPLC peak relative to unexposed control ([1]; UV 282 nm, exposure C) | HPLC peak relative to unexposed control ([1]; UV 282 nm, exposure D) | HPLC peak relative to unexposed control ([1]; UV 282 nm, exposure F) | HPLC peak relative to unexposed control ([1]; UV 308 nm, exposure A) | HPLC peak relative to unexposed control ([1]; UV 308 nm, exposure B) | HPLC peak relative to unexposed control ([1]; UV 308 nm, exposure C)
N=C(N)NCCCC[C@@H]1NC(=O)CCSSC[C@@H](C(N)=O)NC(=O)[C@@H]2CCCN2C(=O)[C@H](Cc2c[nH]c3ccccc23)NC(=O)[C@H](CC(=O)O)NC(=O)CNC1=O [Eptifibatide] ([Mpa][hArg]GDWPC-NH2; disulfide 1-7) | Argatroban>Tirofiban>>Eptifibatide | faster photodegradation profile than the other compounds tested | 47.0% | below the LLOD | Tirofiban>>Argatroban>>Eptifibatide | substantial photodegradation, but to a lesser extent than at UV282 | – | – | – | – | – | – | – | –
COc1ccc2ccc(S(=O)(=O)N(C)[C@H]3CCN(Cc4csc(C(=N)N)c4)C3=O)cc2c1 [RPR-120844] | – | – | – | – | – | – | prolongs the PT and αPTT in a concentration-dependent manner | – | – | – | – | – | – | –
CCCCS(=O)(=O)N[C@@H](Cc1ccc(OCCCCC2CCNCC2)cc1)C(=O)O [Tirofiban] | – | – | 81.2% | – | – | – | – | 59.9% | 37.7% | 15.4% | below the LLOQ; also recorded: indeterminate | 81.2% | 76.9% | 73.0%
